# Assay: Evaporation-induced nucleation and crystal growth of KCl aqueous solutions in microchannel fingers
# Assay type: physicochemical
# Text: The devices used are two-layer PDMS on glass Microsystems (FIG. 1). The microchannels (flowing channel(s)) of the bottom layer are filled with the solution of interest, while air is circulated through the microchannels (evaporation chamber) of the top layer so as to remove the water that pervaporates through the thin membrane of PDMS that separate the two networks where they overlap (thickness e in the 10-30 μm range). Many combinations of geometries for the bottom and top networks can be envisaged. We focus here on the simple “finger” geometry of FIG. 1, a dead end (blind extremity) channel of rectangular cross section (height h, width w, length L) connected to a larger (millimetric) feeding reservoir containing the solution to be concentrated. A terminal section of length L0<L (typically mms to cms) is covered by the water removal network. The operation principle is simple: water in the bottom channel pervaporates through the thin membrane, which induces a compensating flow from the reservoir and concentration of solutes at the finger tip. […]
# FIG. 11: Top: view of the chip with 15 microchannels with different evaporation lengths L0 (the bottom of the frame is the end of the evaporation zone). […] Crystal growth is then monitored xf(t). […]
compound,measurement,setting,value
"[Cl-].[K+] [KCl, potassium chloride]",nucleation concentration cc,"KCl aqueous solution, at this temperature",4.0 ± 0.5 M
same,solute concentration cx in the growing crystal (crystal density),"from initial crystal growth rate and mass conservation, Te=800±50 s",20 ± 2 M

# Source: patent publication US20090221082A1, “Microfluidic Evaporators And Determining Physical And/Or Chemical Properties Of Chemical Compounds Therewith” (Rhodia Operations, priority 2005, published 2009)
